# Assay results as given in patent US12643871B2, “Aryl formamide compound containing chiral sulfur oxide or salt thereof, preparation method, herbicidal composition and use thereof” (Qingdao Kingagroot Chemical Compound Co., Ltd., priority 2019, dated 2026).
# Assays:
# Assay in all cases: Weeding effect in post-emergence stage
# Type in all cases: in vivo
# Details in all cases: 250 g/ha; 2 leaf stage; 15 days after application; fresh weight control rate
# [1] = system: Abutilon theophrasti
# Procedure, shortened: (§1)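 Pot-grown weeds sprayed post-emergence at the 2-leaf stage, 2 weeks after sowing, with compound in acetone/Tween 80 plus 1.5 L/ha methyl oleate concentrate at 500–15 g/ha. Fresh-weight growth control scored after 15 days in greenhouse, mean of three replicates, graded levels 0–5 (5: >85%, 0: <5%).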
# [2] = system: Amaranthus retroflexus
# Procedure, shortened: as §1
# [3] = system: Digitaria sanguinalis
# Procedure, shortened: as §1
# [4] = system: Echinochloa crusgali
# Procedure, shortened: as §1
# [5] = system: Setaria viridis
# Procedure, shortened: as §1
SMILES,"weeding effect in post-emergence stage, activity level (growth control rate), Abutilon theophrasti [1]","weeding effect in post-emergence stage, activity level (growth control rate), Amaranthus retroflexus [2]","weeding effect in post-emergence stage, activity level (growth control rate), Digitaria sanguinalis [3]","weeding effect in post-emergence stage, activity level (growth control rate), Echinochloa crusgali [4]","weeding effect in post-emergence stage, activity level (growth control rate), Setaria viridis [5]"
Cc1nnc(NC(=O)c2ccc(C(F)(F)F)c([S@+]([O-])CCC(F)(C(F)(F)F)C(F)(F)F)c2F)o1 [Compound 36],5 (Level 5: growth control rate is above 85%),5 (Level 5: growth control rate is above 85%),5 (Level 5: growth control rate is above 85%),5 (Level 5: growth control rate is above 85%),5 (Level 5: growth control rate is above 85%)
Cc1nnc(NC(=O)c2ccc(C(F)(F)F)c([S@+]([O-])CC(C)Cl)c2F)o1 (stereo partly shown) [Compound 38],5 (Level 5: growth control rate is above 85%),5 (Level 5: growth control rate is above 85%),5 (Level 5: growth control rate is above 85%),5 (Level 5: growth control rate is above 85%),5 (Level 5: growth control rate is above 85%)
Cc1nnc(NC(=O)c2ccc(C(F)(F)F)c([S@+]([O-])CCCC#N)c2F)o1 [Compound 53],5 (Level 5: growth control rate is above 85%),5 (Level 5: growth control rate is above 85%),5 (Level 5: growth control rate is above 85%),5 (Level 5: growth control rate is above 85%),5 (Level 5: growth control rate is above 85%)
Cc1nnc(NC(=O)c2ccc(C(F)(F)F)c([S@+]([O-])CCCO)c2F)o1 [Compound 55],5 (Level 5: growth control rate is above 85%),5 (Level 5: growth control rate is above 85%),5 (Level 5: growth control rate is above 85%),5 (Level 5: growth control rate is above 85%),5 (Level 5: growth control rate is above 85%)
Cc1nnc(NC(=O)c2ccc(C(F)(F)F)c([S@+]([O-])CC(C)O)c2F)o1 (stereo partly shown) [Compound 56],5 (Level 5: growth control rate is above 85%),5 (Level 5: growth control rate is above 85%),5 (Level 5: growth control rate is above 85%),5 (Level 5: growth control rate is above 85%),5 (Level 5: growth control rate is above 85%)
Cc1nnc(NC(=O)c2ccc(C(F)(F)F)c([S@+]([O-])CCCN)c2F)o1 [Compound 57],5 (Level 5: growth control rate is above 85%),5 (Level 5: growth control rate is above 85%),5 (Level 5: growth control rate is above 85%),5 (Level 5: growth control rate is above 85%),5 (Level 5: growth control rate is above 85%)
CCOC[S+]([O-])c1c(C(F)(F)F)ccc(C(=O)Nc2nnc(C)o2)c1F (stereo not shown) [Compound 70],5 (Level 5: growth control rate is above 85%),5 (Level 5: growth control rate is above 85%),5 (Level 5: growth control rate is above 85%),5 (Level 5: growth control rate is above 85%),5 (Level 5: growth control rate is above 85%)
COC(C)[S+]([O-])c1c(C(F)(F)F)ccc(C(=O)Nc2nnc(C)o2)c1F (stereo not shown) [Compound 71],5 (Level 5: growth control rate is above 85%),5 (Level 5: growth control rate is above 85%),5 (Level 5: growth control rate is above 85%),5 (Level 5: growth control rate is above 85%),5 (Level 5: growth control rate is above 85%)
COCC[S@@+]([O-])c1c(C(F)(F)F)ccc(C(=O)Nc2nnc(C)o2)c1F [Compound 72],5 (Level 5: growth control rate is above 85%),5 (Level 5: growth control rate is above 85%),5 (Level 5: growth control rate is above 85%),5 (Level 5: growth control rate is above 85%),5 (Level 5: growth control rate is above 85%)
CCOCC[S@@+]([O-])c1c(C(F)(F)F)ccc(C(=O)Nc2nnc(C)o2)c1F [Compound 73],5 (Level 5: growth control rate is above 85%),5 (Level 5: growth control rate is above 85%),5 (Level 5: growth control rate is above 85%),5 (Level 5: growth control rate is above 85%),5 (Level 5: growth control rate is above 85%)
COC(C)C[S@@+]([O-])c1c(C(F)(F)F)ccc(C(=O)Nc2nnc(C)o2)c1F (stereo partly shown) [Compound 74],5 (Level 5: growth control rate is above 85%),5 (Level 5: growth control rate is above 85%),5 (Level 5: growth control rate is above 85%),5 (Level 5: growth control rate is above 85%),5 (Level 5: growth control rate is above 85%)
COCCC[S@@+]([O-])c1c(C(F)(F)F)ccc(C(=O)Nc2nnc(C)o2)c1F [Compound 75],5 (Level 5: growth control rate is above 85%),5 (Level 5: growth control rate is above 85%),5 (Level 5: growth control rate is above 85%),5 (Level 5: growth control rate is above 85%),5 (Level 5: growth control rate is above 85%)
Cc1nnc(NC(=O)c2ccc(C(F)(F)F)c([S@+]([O-])CCOC(F)F)c2F)o1 [Compound 164],5 (Level 5: growth control rate is above 85%),5 (Level 5: growth control rate is above 85%),5 (Level 5: growth control rate is above 85%),5 (Level 5: growth control rate is above 85%),5 (Level 5: growth control rate is above 85%)
Cc1nnc(NC(=O)c2ccc(C(F)(F)F)c([S@+]([O-])CCOC(F)(F)F)c2F)o1 [Compound 165],5 (Level 5: growth control rate is above 85%),5 (Level 5: growth control rate is above 85%),5 (Level 5: growth control rate is above 85%),5 (Level 5: growth control rate is above 85%),5 (Level 5: growth control rate is above 85%)
